According to paper PMC5430874 (Scientific Reports, 2017):
Residue numbers refer to the chain shown, from its start. Read-outs that look alike come from different tables or passages of the source.

Key:
myc-GPR139(WT) = biological target: T1, myc-GPR139(WT) (Homo sapiens, UniProt Q6DWJ6); assay: Fluo-4 Ca2+-assay, myc-tagged wild-type GPR139 in HEK293; format: cell-based; settings: for Emax: HEK293; for EC50: Fluo-4 Ca2+-assay
T1 construct: mGluR5 signal peptide (N); expressed in transfected cells; host or cells: HEK293
T1 sequence (Q6DWJ6 2-353 limits assumed): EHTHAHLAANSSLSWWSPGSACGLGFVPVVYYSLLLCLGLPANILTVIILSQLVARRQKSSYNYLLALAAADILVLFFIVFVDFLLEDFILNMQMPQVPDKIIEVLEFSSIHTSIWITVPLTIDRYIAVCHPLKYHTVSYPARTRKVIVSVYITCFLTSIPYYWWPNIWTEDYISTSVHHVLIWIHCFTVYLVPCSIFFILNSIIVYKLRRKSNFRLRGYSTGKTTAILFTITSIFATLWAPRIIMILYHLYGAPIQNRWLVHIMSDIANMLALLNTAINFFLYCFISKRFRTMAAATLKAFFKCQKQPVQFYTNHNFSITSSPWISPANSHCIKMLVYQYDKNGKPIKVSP
Text: (§1) To study the influence of specific amino acids in the predicted binding pocket on receptor function, the desired mutations were introduced into an N-terminally c-myc-tagged wild type human GPR139 (NM_001002911.3) in the pEGFP-N1 vector (BD Biosciences)[32], [33]. As previously described, these plasmids carry the signal peptide of mGluR5 to promote cell surface expression followed by a c-myc epitope to enable detection of total and surface expression by ELISA, followed by an engineered MluI and NotI site for easy insertion of the receptor of interest. Furthermore, the start-codon in the GPR139 sequence was deleted to ensure c-myc-tagging. Mutagenesis was designed in Serial Cloner 2.6 (© Franck Perez [SerialBasics]) and carried out by GenScript (USA). All mutated residues are illustrated in Supplementary Fig. 1b. An untagged GPR139(WT) in pEGFP-N1 was also generated to ensure that the c-myc-tag had no influence on GPR139(WT) function.
(§2) All GPR139 mutants were transfected into HEK293 cells. The HEK293 cells were grown in Dulbecco’s modified Eagle’s medium (DMEM) (Gibco, 41965) supplemented with 10% dialyzed fetal bovine serum (Gibco, 26400, United States origin), 100 units/mL penicillin and 100 μg/mL streptomycin (Gibco, 15140). HEK293 cells were reverse transfected using Lipofectamine2000 (Invitrogen). More specifically two mixtures were made: 1) 10 ng DNA/well + 25 μL Opti-MEM/well and 2) […] Lipofectamine2000/well + 25 μL Opti-MEM/well. The two mixtures were mixed and 50 μL/well was added directly in black 96-well plates with flat clear bottoms for the Fluo-4 Ca^2+-assay (Corning, Falcon, 353219) or in white Opaque 96-well Microplate (PerkinElmer Life, 6005680) for ELISA. 100 μL containing 20,000 cells were added to each well and incubated 48 hours before assays. All plates were coated with poly-D-lysine.
(§3) Compound 1a (1a) was kindly provided by H. Lundbeck A/S, Denmark. […] Both compounds were dissolved to 20 mM in DMSO (Sigma, D2650) and subsequently diluted in a HEPES buffer (HBSS (Gibco, 14025) supplemented with 20 mM HEPES + 1 mM MgCl2 + 1 mM CaCl2, pH = 7.4) to a final concentration of 0.5% DMSO in the Fluo-4 Ca^2+-assay. The DMSO level was kept constant for all concentrations of both compounds. DMSO was confirmed not to have any activity by itself at this concentration. L-Trp (T0254) and L -Phe (P2126) were obtained from Sigma-Aldrich and dissolved in buffer.
(§4) The Ca^2+ measurements were preformed using the Fluo-4 NW Calcium Assay Kit (Invitrogen, Molecular Probes, F36206) as previously described. Briefly, the Fluo-4 dye loading solution was prepared according to the manufacturer’s instructions by dissolving it in HEPES-buffer supplemented with 2.5 mM probenecid. 50 μL dye loading solution was added to each well. Cells were incubated with the Fluo-4 dye for 60 min at 37 °C, then washed with 100 μL HEPES-buffer. 100 μL HEPES-buffer supplemented with 2.5 mM probenecid was then added to each well and incubated in 10 minutes at 37 °C before measurement. […] Intracellular calcium changes were recorded as indicated on either a NOVOstar (BMG Labtech) at 37 °C with an excitation filter of 485 nm and an emission filters 520 nm or a FlexStation 3 Benchtop Multi-Mode Microplate Reader (Molecular Devices) at 37 °C with an excitation wavelength of 485 nm and emission of 525 nm.
(§5) All pharmacological data have been analyzed by using Prism 6.0 (GraphPad Software Inc., San Diego). Fitting of concentration response curves was performed by non-linear regression log(agonist) vs. response (four parameters). Pooled data are shown with standard error of the mean (S.E.M.) and data showing one representative are shown with standard deviation (S.D.). Changes in potency (pEC50) and span of myc-GPR139(WT) in comparison to untagged GPR139(WT) was statistically analyzed with a paired t-test and significance was accepted at p < 0.05. The ELISA data were normalized to surface expression of myc-GPR139(WT) (100%). […]

GPR139 E108A^3×32 = biological target: T2, GPR139 E108A^3×32 (Homo sapiens, UniProt Q6DWJ6, E108A); assay: Fluo-4 Ca2+-assay, GPR139 mutant E108A; format: cell-based; settings: for EC50: E108A mutant
T2 construct: mGluR5 signal peptide (N); expressed in transfected cells; host or cells: HEK293
T2 sequence (Q6DWJ6 2-353 E108A limits assumed): T1 sequence (Q6DWJ6 2-353 limits assumed) with E107A
Text: as §1, §2, §3, §4, §5

[1] = WT, HEK293, three independent experiments, read-out: pEC50 ± SEM (converted)
[2] = three independent experiments, read-out: pEC50 ± SEM (converted)
[3] = only one experiment, read-out: pEC50 (converted)

Compound	Emax (myc-GPR139(WT))	EC50 (myc-GPR139(WT); [1])	EC50 (GPR139 E108A^3×32; [2])	Emax (GPR139 E108A^3×32; read-out: Emax ± SEM)	EC50 (myc-GPR139(WT); myc-tagged wild-type (WT) receptor, read-out: EC50)	change of potency (GPR139 E108A^3×32; E108A mutant versus WT)	Emax (GPR139 E108A^3×32; E108A, normalized to buffer (0%) and 8 μM 1a (100%) on WT, read-out: Emax ± SEM)	Emax (myc-GPR139(WT); WT, normalized to buffer (0%) and 30 mM Phe (100%))	EC50 (GPR139 E108A^3×32; [3])	Emax (GPR139 E108A^3×32; E108A, normalized to buffer (0%) and 30 mM Phe (100%) on WT, n=1, read-out: Emax)	Emax (myc-GPR139(WT); WT, normalized to buffer (0%) and 10 mM Trp (100%))	Emax (GPR139 E108A^3×32; E108A, normalized to buffer (0%) and 10 mM Trp (100%) on WT, n=1, read-out: Emax)
C[C@@H](NC(=O)CNC(=O)c1cccc(Cl)c1)c1ccccc1 (racemic) [Compound 7c]	100%	47.9 nM	0.151 µM	112 ± 10%								
COc1cc(OC)cc(C(=O)NNC(=O)Nc2cccc3ccccc23)c1 [Compound 1a]		234 nM	0.209 µM		670 nM	no effect	151 ± 9%					
N[C@@H](Cc1ccccc1)C(=O)O [L-Phe, phenylalanine]		372000 nM						100%	251 µM	127%		
N[C@@H](Cc1c[nH]c2ccccc12)C(=O)O [L-Trp, tryptophan]		200000 nM							166 µM		100%	125%
